pKi: −log10 of the molar value. Structures can show the parent of a compound that is named as a salt.
Key:
[1] = target: serotonin 2 receptor (Rattus norvegicus, UniProt P14842); experiment: Binding test on [3H] ketanserin (serotonin 2 receptor); settings: [3H] ketanserin 0.3 nM, receptor fraction of rat cerebral cortex; read-out: 5HT2
Method: (§1) Use was made of SD rats aged 6 to 8 weeks.
(§2) The rats were sacrificed by dcapitation to extirpate the cerebra.
(§3) The hippocampus was mixed with 50 times (on the wet weight basis) as much a 0.32 M sucrose solution while the cortex was mixed with 10 times as much the same solution. Each mixture was homogenized by using a Teflon glass homogenizer and centrifuged at 1,000×g for 10 min. The supernatant thus obtained was further centrifuged at 20,000×g for 20 min. The obtained precipitate was re-suspended in 50 times (based on the intial wet weight; in the case of the hippocampus) or 10 times (in the case of the cortex) as much a 50 mM Tris hydrochloride (pH 7.4) and incubated at room temperature for 30 min. After centrifuging at 20,000×g for 20 min, the obtained precipitate was further suspended and centrifuged twice each in the same manner. The precipitate thus obtained was suspended in 100 times (based on the initial wet weight; in the case of the hippocampus) or 20 times (in the case of the cortex) as much a 50 mM Tris hydrochloride solution (pH 7.4) to thereby give a receptor fraction. This receptor fraction was stored at −80° C. until using.
(Binding Test on [^3H] Ketanserin)
Next, it was filtered through a glass filter with the use of a cell harvester. After washing the glass filter with 50 mM Tris hydrochloride (pH 7.4), the radioactivity of the receptor was measured with a liquid scintillation counter. The binding detected in the presence of 1 μM of methysergide was referred to as the nonspecific binding.
(§4) IC50 was calculated by the probit method, while Ki was determined in accordance with the following formula:
(§5) wherein c represents the concentration of the radioisotope-labeled compound, and Kd represents the dissociation constant of the radioisotope-labeled compound with respect to the receptor determined by Scatchard's analysis.

[2] = target: α1 adrenalin receptor; experiment: Binding test on [3H] prazosin (α1 adrenalin receptor); parameters: species or system rat; settings: [3H] prazosin about 0.2 nM, receptor fraction of rat cerebral cortex
Method: Methysergide maleate was dissolved in distilled water before using.
as §1, §2, §3
(Binding Test on [^3H] Prazosin)
Next, it was filtered through a glass filter with the use of a cell harvester. After washing the glass filter with 50 mM Tris hydrochloride (pH 7.4), the radioactivity of the receptor was measured with a liquid scintillation counter. The binding detected in the presence of 10 μM of phentolamine was referred to as the nonspecific binding.
Subsequently, the abilities of typical examples of the compounds of the present invention to bind to the α1 adrenalin receptor were evaluated by the test method described above.

[3] = target: T1, serotonin 1A receptor (Rattus norvegicus, UniProt P19327); experiment: Binding test on [3H] 8-hydroxy-dipropylaminotetralin (serotonin 1A receptor); settings: [3H] 8-OH-DPAT 0.5 nM, receptor fraction of rat hippocampus; read-out: 5HT1a
T1 construct: To the receptor fraction of the hippocampus were added a test compound and 0.5 nM of [^3H]; 8-hydroxy-dipropylaminotetralin; from tissue; host or cells: SD rat hippocampus, membrane (receptor) fraction
T1 sequence (P19327 1-422): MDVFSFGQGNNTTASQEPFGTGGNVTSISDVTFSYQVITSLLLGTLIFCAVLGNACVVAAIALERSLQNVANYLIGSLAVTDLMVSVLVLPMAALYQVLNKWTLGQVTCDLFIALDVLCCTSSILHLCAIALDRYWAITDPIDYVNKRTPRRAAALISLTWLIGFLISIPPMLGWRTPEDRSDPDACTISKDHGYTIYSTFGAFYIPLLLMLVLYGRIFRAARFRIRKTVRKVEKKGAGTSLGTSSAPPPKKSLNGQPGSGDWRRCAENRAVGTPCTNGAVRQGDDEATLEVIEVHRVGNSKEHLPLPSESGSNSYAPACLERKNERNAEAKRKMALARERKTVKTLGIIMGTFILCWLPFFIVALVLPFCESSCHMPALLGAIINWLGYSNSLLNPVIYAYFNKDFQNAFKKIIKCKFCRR
Method: 3) [^3H] 8-Hydroxy-dipropylaminotetralin (8-OH-DPAT).
as §1, §2
Each mixture was homogenized by using a Teflon glass homogenizer and centrifuged at 1,000×g for 10 min. The supernatant thus obtained was further centrifuged at 20,000×g for 20 min. The obtained precipitate was re-suspended in 50 times (based on the intial wet weight; in the case of the hippocampus) or 10 times (in the case of the cortex) as much a 50 mM Tris hydrochloride (pH 7.4) and incubated at room temperature for 30 min. After centrifuging at 20,000×g for 20 min, the obtained precipitate was further suspended and centrifuged twice each in the same manner. The precipitate thus obtained was suspended in 100 times (based on the initial wet weight; in the case of the hippocampus) or 20 times (in the case of the cortex) as much a 50 mM Tris hydrochloride solution (pH 7.4) to thereby give a receptor fraction. This receptor fraction was stored at −80° C. until using.
(Binding Test on [^3H] 8-hydroxy-dipropylaminotetralin)
To the receptor fraction of the hippocampus were added a test compound and 0.5 nM of [^3H] 8-hydroxy-dipropylaminotetralin and the resultant mixture was incubated at room temperature for 30 min. Next, it was filtered through a glass filter with the use of a cell harvester. After washing the glass filter with 50 mM Tris hydrochloride (pH 7.4), the radioactivity of the receptor was measured with a liquid scintillation counter. The binding detected in the presence of 10 μM of serotonin binoxalate was referred to as the nonspecific binding.
as §4, §5

serotonin 2 receptor, sequence (P14842 whole entry): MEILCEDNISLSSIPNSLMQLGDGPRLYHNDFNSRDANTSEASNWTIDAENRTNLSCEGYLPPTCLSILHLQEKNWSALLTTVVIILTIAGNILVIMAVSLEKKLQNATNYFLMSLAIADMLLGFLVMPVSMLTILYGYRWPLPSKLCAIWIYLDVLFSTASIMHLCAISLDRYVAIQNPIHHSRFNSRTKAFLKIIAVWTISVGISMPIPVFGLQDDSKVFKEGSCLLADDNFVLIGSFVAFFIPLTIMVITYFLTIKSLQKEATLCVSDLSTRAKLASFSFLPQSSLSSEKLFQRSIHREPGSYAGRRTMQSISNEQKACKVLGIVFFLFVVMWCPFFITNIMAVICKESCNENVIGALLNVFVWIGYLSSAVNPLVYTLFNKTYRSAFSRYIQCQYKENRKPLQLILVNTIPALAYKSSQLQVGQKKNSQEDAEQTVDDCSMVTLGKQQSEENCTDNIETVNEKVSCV

SMILES	pKi [1]	pKi [2]	pKi [3]	melting point
O=C(Cc1ccc2ccn(C3CCN(CCc4ccc(F)cc4)CC3)c2c1)NC1CC1 [Example 295, 1-[1-(4-fluorophenethyl)piperidin-4-yl]-6-[N-(cyclopropylcarbamoyl)methyl]indole]	8.44	6.71	9.07	156.4 to 156.8 °C
Fc1ccc(CCN2CCC(n3ccc4cc5scnc5cc43)CC2)cc1 [Example 334, 1-[1-(4-fluorophenethyl)piperidin-4-yl]thiazolo[5.4-f]indole]	< 7.70	6.67	10.40	152 to 154 °C
CC(=O)Nc1ccc2ccn(C3CCN(CCc4ccc(F)cc4)CC3)c2c1 [Example 339, 1-[1-(4-fluorophenethyl)piperidin-4-yl]-6-acetamidoindole]	< 7.70	7.50	> 9.70	195 to 196 °C
CC(C)C(=O)NCc1ccc2ccn(C3CCN(CCc4ccc(F)cc4)CC3)c2c1 [Example 354, 1-[1-(4-fluorophenethyl)piperidin-4-yl]-6-isobutyrylaminomethylindole]	8.32	7.04	8.91	97 to 98 °C
COC(=O)NCc1ccc2ccn(C3CCN(CCc4ccc(F)cc4)CC3)c2c1 [Example 384, 1-[1-(4-fluorophenethyl)piperidin-4-yl]-6-methoxycarbonylaminomethylindole]	9.60		9.89	117 to 118 °C
O=C(CCO)NCc1ccc2ccn(C3CCN(CCc4ccccc4F)CC3)c2c1 [Example 382, 1-[1-(2-fluorophenethyl)piperidin-4-yl]-6-(3-hydroxypropionylamino)methylindole]	8.48	6.79	8.12	58 to 59 °C
CCC(=O)NCc1ccc2ccn(C3CCN(CCc4ccccc4F)CC3)c2c1 [Example 380, 1-[1-(2-fluorophenethyl)piperidin-4-yl]-6-propionylaminomethylindole]	8.81	6.94	8.54	118 to 119 °C
CNS(=O)(=O)Cc1ccc2ccn(C3CCN(CCc4ccc(F)cc4)CC3)c2c1 [Example 338, 1-[1-(4-fluorophenethyl)piperidin-4-yl]-6-(N-methylsulfamoylmethyl)indole]	< 7.70	7.67	10.15	172 to 175 °C
CC(C)NC(=O)Cc1ccc2ccn(C3CCN(CCc4ccc(F)cc4)CC3)c2c1 [Example 286, 1-[1-(4-fluorophenethyl)piperidin-4-yl]-6-(N-isopropylcarbamoylmethyl)indole]	8.51		8.43	146 to 148 °C
O=C1CNC(=O)N1Cc1ccc2ccn(C3CCN(CCc4ccc(F)cc4)CC3)c2c1 [Example 353, 1-[1-(4-fluorophenethyl)piperidin-4-yl]-6-(2,4-imidazolidinedion-3-yl)methylindole]	7.90	6.84	9.11	156 to 157 °C
O=C(NCc1ccc2ccn(C3CCN(CCc4ccc(F)cc4)CC3)c2c1)C(F)F [Example 365, 1-[1-(4-fluorophenethyl)piperidin-4-yl]-6-difluoroacetamidomethylindole]	8.51	7.21	9.38	79 to 80 °C
CC(C)S(=O)(=O)NCc1ccc2ccn(C3CCN(CCc4ccc(F)cc4)CC3)c2c1 [Example 323, 1-[1-(4-fluorophenethyl)piperidin-4-yl]-6-isopropylsulfonamidomethylindole]	< 7.70	7.06	9.85	90 to 92 °C
CCC(=O)NCc1ccc2ccn(C3CCN(CCc4ccc(F)cc4)CC3)c2c1 [Example 327, 1-[1-(4-fluorophenethyl)piperidin-4-yl]-6-propionylaminomethylindole]	8.58	7.00	8.98	141 to 142 °C
CN(C)CCNC(=O)Cc1ccc2ccn(C3CCN(CCc4ccc(F)cc4)CC3)c2c1 [Example 307, 1-[1-(4-fluorophenethyl)piperidin-4-yl]-6-(2-dimethylaminoethyl)carbamoylmethylindole]	9.08	7.29	8.15	111.8 to 112.9 °C
OCc1ccc2ccn(C3CCN(CCc4ccccc4F)CC3)c2c1 [Example 391, 1-[1-(2-fluorophenethyl)piperidin-4-yl]-6-hydroxymethylindole]	8.17	6.93	8.76	116.8 to 117.5 °C
NC(=O)Cc1ccc2ccn(C3CCN(CCc4ccc(F)cc4F)CC3)c2c1 [Example 299, 1-[1-(2,4-difluorophenethyl)piperidin-4-yl]-6-carbamoylmethylindole]	8.60		9.96	156.9 to 157.8 °C

SMILES	pKi [1]	pKi [2]	pKi [3]	melting point
COc1ccc(CCN2CCC(n3ccc4ccc(CNC(C)=O)cc43)CC2)cc1 [Example 351, 1-[1-(4-methoxyphenethyl)piperidin-4-yl]-6-acetamidomethylindole]	< 7.70	6.76	9.57	101 to 102 °C
CC(=O)NCc1ccc2ccn(C3CCN(CCc4ccc(Cl)cc4)CC3)c2c1 [Example 349, 1-[1-(4-chlorophenethyl)piperidin-4-yl]-6-acetamidomethylindole]	8.09	7.05	9.66	148 to 149 °C
O=C(Cc1ccc2ccn(C3CCN(CCc4ccc(F)cc4)CC3)c2c1)NCC1OCCO1 [Example 347, 1-[1-(4-fluorophenethyl)piperidin-4-yl]-6-(1,3-dioxolan-2-ylmethyl)carbamoylmethylindole]	9.19	7.35	8.65	173.8 to 174.6 °C
CS(=O)(=O)NCc1ccc2ccn(C3CCN(CCc4ccc(F)cc4)CC3)c2c1 [Example 322, 1-[1-(4-fluorophenethyl)piperidin-4-yl]-6-methanesulfonamidomethylindole]	7.52	7.38	10.10	121 to 122 °C
OCCCc1ccc2ccn(C3CCN(CCc4ccc(F)cc4)CC3)c2c1 [Example 321, 1-[1-(4-fluorophenethyl)piperidin-4-yl]-6-(3-hydroxypropyl)indole]	< 7.70	6.69	9.85	131 to 133 °C
O=C(Cc1ccc2ccn(C3CCN(CCc4ccc(F)cc4)CC3)c2c1)NCCF [Example 310, 1-[1-(4-fluorophenethyl)piperidin-4-yl]-6-(2-fluoroethyl)carbamoylmethylindole]	8.64	7.07	8.87	163.3 to 163.8 °C
CNC(=O)Cc1ccc2ccn(C3CCN(CCc4ccc(F)cc4)CC3)c2c1 [Example 316, 1-[1-(4-fluorophenethyl)piperidin-4-yl]-6-methylcarbamoylmethylindole]	8.90	7.20	8.74	149.4 to 150.5 °C
CC(=O)NCc1ccc2ccn(C3CCN(CCCCc4ccc(F)cc4)CC3)c2c1 [Example 356, 1-{1-[4-(4-fluorophenyl)butyl]-piperidin-4-yl}-6-acetamidomethylindole]	< 7.70		8.82	59 to 60 °C
CC(=O)NCc1ccc2ccn(C3CCN(CCc4ccc(Br)cc4)CC3)c2c1 [Example 389, 1-[1-(4-bromophenethyl)piperidin-4-yl]-6-acetamidomethylindole]	7.81		9.28	140 to 141 °C
O=C(CCl)NCc1ccc2ccn(C3CCN(CCc4ccc(F)cc4)CC3)c2c1 [Example 373, 1-[1-(4-fluorophenethyl)piperidin-4-yl]-6-chloroacetamidomethylindole]	8.75		9.62	143 to 144 °C
O=[N+]([O-])c1ccc(CCN2CCC(N3CCc4ccccc43)CC2)cc1 [Example 29, 1-[1-(4-nitrophenethyl)piperidin-4-yl]indoline]	7.44			95 to 97 °C
NC(=O)c1ccc2ccn(C3CCN(CCc4ccc(F)cc4)CC3)c2c1 [Example 337, 1-[1-(4-fluorophenethyl)piperidin-4-yl]-6-carbamoylindole]	< 7.70		> 9.70	238 to 240 °C
O=C(CF)NCc1ccc2ccn(C3CCN(CCc4ccccc4F)CC3)c2c1 (as salt: oxalate) [Example 381, 1-[1-(2-fluorophenethyl)piperidin-4-yl]-6-fluoroacetamidomethylindole]				168 to 169 °C
COc1ccc2c(c1)N(C1CCN(CCc3ccc(F)cc3)CC1)CCC2 (as salt: hydrochloride)				258 °C (dec.)
O=C1CCCN1Cc1ccc2ccn(C3CCN(CCc4ccc(F)cc4)CC3)c2c1 (as salt: oxalate) [Example 358, 1-[1-(4-fluorophenethyl)piperidin-4-yl]-6-(2-pyrrolidon-1-yl)methylindole]				179 to 180 °C

From US6579881B2 (Eisai Co., Ltd., priority 1997, dated 2003)
